Experimental data published in publication PMC10452110, “Indole-3-Acetamido-Polyamines as Antimicrobial Agents and Antibiotic Adjuvants” (Biomolecules, 2023).
Where two headings read alike, the source gives them in different places.

Key:
[1] = tested on: Cryptococcus neoformans (ATCC 208821); experiment: Intrinsic antifungal activity (MIC) against C. neoformans; type: cell-based
Description: (§1) The susceptibility of bacterial strains Staphylococcus aureus (ATCC 25923), Escherichia coli (ATCC 25922) and Pseudomonas aeruginosa (ATCC 27853) to antibiotics and compounds was determined using previously reported protocols. Additional antimicrobial evaluation against MRSA (ATCC 43300), Klebsiella pneumoniae (ATCC 700603), Acinetobacter baumannii (ATCC 19606), Candida albicans (ATCC 90028) and Cryptococcus neoformans (ATCC 208821) was undertaken at the Community for Open Antimicrobial Drug Discovery at The University of Queensland (Australia) according to their standard protocols, as reported previously.

human red blood cells = experiment: Hemolytic assay; type: cell-based; settings: mean (n = 2)
Description: Hemolysis assays were conducted using the protocols previously reported.

P. aeruginosa ATCC 27853 = experiment: Enhancement of doxycycline action against P. aeruginosa; type: cell-based, Pseudomonas aeruginosa; settings: doxycycline at 4.5 µM
Description: (§2) Antibiotic enhancer concentrations were determined using previously reported protocols.

Cytotoxicity assay = type: cell-based; settings: human; HEK293 cells; mean (n = 2); read-out: Cytotoxicity: concentration of compound at 50% cytotoxicity (IC50)
Description: Cytotoxicity assays were conducted using the protocols previously reported.

MRSA (ATCC 43300) = experiment: Intrinsic antimicrobial activity (MIC) against MRSA; type: cell-based; settings: Staphylococcus aureus, MRSA ATCC 43300; mean (n = 2); read-out: MIC MRSA
Description: as §1

[2] = tested on: Pseudomonas aeruginosa (ATCC 27853); experiment: Intrinsic antimicrobial activity (MIC) against P. aeruginosa; type: cell-based
Description: as §1

[3] = tested on: Staphylococcus aureus (ATCC 25923); experiment: Intrinsic antimicrobial activity (MIC) against S. aureus; type: cell-based
Description: as §1

[4] = tested on: Escherichia coli (ATCC 25922); experiment: Intrinsic antimicrobial activity (MIC) against E. coli; type: cell-based
Description: as §1

E. coli ATCC 25922 = experiment: Enhancement of erythromycin action against E. coli; type: cell-based, Escherichia coli; settings: erythromycin at 10.9 µM
Description: as §2

[5] = tested on: Candida albicans (ATCC 90028); experiment: Intrinsic antifungal activity (MIC) against C. albicans; type: cell-based
Description: as §1

[6] = tested on: Acinetobacter baumannii (ATCC 19606); experiment: Intrinsic antimicrobial activity (MIC) against A. baumannii; type: cell-based
Description: as §1

[7] = tested on: Klebsiella pneumoniae (ATCC 700603); experiment: Intrinsic antimicrobial activity (MIC) against K. pneumoniae; type: cell-based
Description: as §1

[8] = ATCC208821, C. neoformans ATCC 208821, mean (n = 2), read-out: MIC C. n
[9] = ATCC27853, P. aeruginosa ATCC 27853, mean (n = 3), read-out: MIC P. a
[10] = ATCC25923, S. aureus ATCC 25923, mean (n = 3), read-out: MIC S. a
[11] = ATCC25922, E. coli ATCC 25922, mean (n = 3), read-out: MIC E. c
[12] = ATCC90028, C. albicans ATCC 90028, mean (n = 2), read-out: MIC C. a
[13] = ATCC19606, A. baumannii ATCC 19606, mean (n = 2), read-out: MIC A. b
[14] = ATCC700603, K. pneumoniae ATCC 700603, mean (n = 2), read-out: MIC K. p

SMILES	MIC [1, 8] [µM]	Hemolysis: concentration of compound at 10% hemolytic activity (HC10) (human red blood cells) [µM]	Dox/P. a fold change (ratio between intrinsic MIC of the test compound and combination MIC) (P. aeruginosa ATCC 27853) [fold]	Dox/P. a: concentration required to restore doxycycline activity (combination MIC) (P. aeruginosa ATCC 27853) [µM]	IC50 (Cytotoxicity assay) [µM]	MIC (MRSA (ATCC 43300)) [µM]	MIC [2, 9] [µM]	MIC [3, 10] [µM]	MIC [4, 11] [µM]	Eryth/E. c: concentration required to restore erythromycin activity (combination MIC) (E. coli ATCC 25922) [µM]	MIC [5, 12] [µM]	MIC [6, 13] [µM]	MIC [7, 14] [µM]	MIC ([1]; ATCC208821, read-out: MIC C. n) [µM]	MIC ([2]; ATCC27853, read-out: MIC P. a) [µM]	MIC ([3]; ATCC25923, read-out: MIC S. a) [µM]	MIC ([4]; ATCC25922, read-out: MIC E. c) [µM]	MIC ([5]; ATCC90028, read-out: MIC C. a) [µM]	MIC ([6]; ATCC19606, read-out: MIC A. b) [µM]	MIC ([7]; ATCC700603, read-out: MIC K. p) [µM]
O=C(Cc1c[nH]c2c(F)cccc12)NCCCNCCCCNCCCNC(=O)Cc1c[nH]c2c(F)cccc12.O=C(O)C(F)(F)F.O=C(O)C(F)(F)F [Compound 18a, N^1,N^4-Bis(3-(2-(7-fluoro-1H-indol-3-yl)acetamido)propyl)butane-1,4-diaminium 2,2,2-trifluoroacetate]	< 0.2	>41	4	64.0	> 41	< 0.2	> 256	16	256	64.0	5.12	> 41	> 41							
Cc1ccc2[nH]cc(CC(=O)NCCCNCCCCCCCNCCCNC(=O)Cc3c[nH]c4ccc(C)cc34)c2c1.O=C(O)C(F)(F)F.O=C(O)C(F)(F)F [Compound 17c, N^1,N^7-Bis(3-(2-(5-methyl-1H-indol-3-yl)acetamido)propyl)heptane-1,7-diaminium 2,2,2-trifluoroacetate]	< 0.2	>39	> 2	123	> 39	< 0.2	> 245	61.4	245	61.4	39.3	> 39	> 39							
COc1ccc2[nH]cc(CC(=O)NCCCNCCCCCCCNCCCNC(=O)Cc3c[nH]c4ccc(OC)cc34)c2c1.O=C(O)C(F)(F)F.O=C(O)C(F)(F)F [Compound 16c, N^1,N^7-Bis(3-(2-(5-methoxy-1H-indol-3-yl)acetamido)propyl)heptane-1,7-diaminium 2,2,2-trifluoroacetate]	2.36	>38		12.5	> 38	> 38	> 200	> 200	25	50	> 38	> 38	> 38							
O=C(Cc1c[nH]c2ccc(Br)cc12)NCCCNCCCCCCCCCCNCCCNC(=O)Cc1c[nH]c2ccc(Br)cc12.O=C(O)C(F)(F)F.O=C(O)C(F)(F)F [Compound 15e, N^1,N^10-Bis(3-(2-(5-bromo-1H-indol-3-yl)acetamido)propyl)decane-1,10-diaminium 2,2,2-trifluoroacetate]	≤ 0.25	≤0.25	4	12.7	> 32	≤ 0.25	50.7	6.33	12.7	12.7	≤ 0.25	> 32	> 32							
O=C(Cc1c[nH]c2c(F)cccc12)NCCCNCCCCCCNCCCNC(=O)Cc1c[nH]c2c(F)cccc12.O=C(O)C(F)(F)F.O=C(O)C(F)(F)F [Compound 18b, N^1,N^6-Bis(3-(2-(7-fluoro-1H-indol-3-yl)acetamido)propyl)hexane-1,6-diaminium 2,2,2-trifluoroacetate]	< 0.2	>40	> 1	247	> 40	< 0.2	> 247	124	> 247	> 247	39.6	> 40	> 40							
Cc1ccc2[nH]cc(CC(=O)NCCCNCCCCNCCCNC(=O)Cc3c[nH]c4ccc(C)cc34)c2c1.O=C(O)C(F)(F)F.O=C(O)C(F)(F)F [Compound 17a, N^1,N^4-Bis(3-(2-(5-methyl-1H-indol-3-yl)acetamido)propyl)butane-1,4-diaminium 2,2,2-trifluoroacetate]	≤ 0.32	8.46	> 2	129	> 41	≤ 0.32	> 259	129	> 259	64.7	20.7	> 41	> 41							
O=C(Cc1c[nH]c2ccccc12)NCCCNCCCCCCCCCCNCCCNC(=O)Cc1c[nH]c2ccccc12.O=C(O)C(F)(F)F.O=C(O)C(F)(F)F [Compound 14e, N^1,N^10-Bis(3-(2-(1H-indol-3-yl)acetamido)propyl)decane-1,10-diaminium 2,2,2-trifluoroacetate]		≤0.30	4	15.1	> 39	≤ 0.3				15.1				≤ 0.3	60.3	3.77	15.1	≤ 0.3	> 39	> 39
COc1ccc2[nH]cc(CC(=O)NCCCNCCCCCCCCNCCCNC(=O)Cc3c[nH]c4ccc(OC)cc34)c2c1.O=C(O)C(F)(F)F.O=C(O)C(F)(F)F [Compound 16d, N^1,N^8-Bis(3-(2-(5-methoxy-1H-indol-3-yl)acetamido)propyl)octane-1,8-diaminium 2,2,2-trifluoroacetate]	≤ 0.29	>37		6.25	> 37	2.32	100	25	6.25	6.25	> 37	> 37	> 37							
O=C(Cc1c[nH]c2ccc(Br)cc12)NCCCNCCCCCCNCCCNC(=O)Cc1c[nH]c2ccc(Br)cc12.O=C(O)C(F)(F)F.O=C(O)C(F)(F)F [Compound 15b, N^1,N^6-Bis(3-(2-(5-bromo-1H-indol-3-yl)acetamido)propyl)hexane-1,6-diaminium 2,2,2-trifluoroacetate]	< 0.2	>34	8	26.9	> 34	< 0.2	215	13.4	26.9	53.7	2.15	> 34	> 34							
